Reference: PMC9970282 (Nature chemical biology, 2022)

Key:
Assay in all cases: Competitive kinase engagement in mouse spleen with probe 3 as occupancy probe
Assay type in all cases: in vivo, mice
[1] = molecular target: CDK2 (Mus musculus, UniProt P97377); settings: 50 mg/kg oral
[2] = molecular target: CDK17 (Mus musculus, UniProt Q8K0D0); settings: 50 mg/kg oral, probe 3 10 mg/kg s.c., 1 h, p < 0.05
[3] = molecular target: CDK5 (Mus musculus, UniProt P49615); settings: 50 mg/kg oral, probe 3 10 mg/kg s.c., 1 h, p < 0.05
Chain of CDK5 (P49615 whole entry): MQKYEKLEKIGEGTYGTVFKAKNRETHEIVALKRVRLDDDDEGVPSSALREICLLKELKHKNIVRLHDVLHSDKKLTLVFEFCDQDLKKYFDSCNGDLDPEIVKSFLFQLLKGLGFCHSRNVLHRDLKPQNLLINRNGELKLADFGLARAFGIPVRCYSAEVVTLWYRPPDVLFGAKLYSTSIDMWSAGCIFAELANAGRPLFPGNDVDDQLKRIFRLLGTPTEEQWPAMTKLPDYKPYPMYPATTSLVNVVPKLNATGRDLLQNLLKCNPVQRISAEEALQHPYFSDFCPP

Chain of CDK17 (Q8K0D0 whole entry): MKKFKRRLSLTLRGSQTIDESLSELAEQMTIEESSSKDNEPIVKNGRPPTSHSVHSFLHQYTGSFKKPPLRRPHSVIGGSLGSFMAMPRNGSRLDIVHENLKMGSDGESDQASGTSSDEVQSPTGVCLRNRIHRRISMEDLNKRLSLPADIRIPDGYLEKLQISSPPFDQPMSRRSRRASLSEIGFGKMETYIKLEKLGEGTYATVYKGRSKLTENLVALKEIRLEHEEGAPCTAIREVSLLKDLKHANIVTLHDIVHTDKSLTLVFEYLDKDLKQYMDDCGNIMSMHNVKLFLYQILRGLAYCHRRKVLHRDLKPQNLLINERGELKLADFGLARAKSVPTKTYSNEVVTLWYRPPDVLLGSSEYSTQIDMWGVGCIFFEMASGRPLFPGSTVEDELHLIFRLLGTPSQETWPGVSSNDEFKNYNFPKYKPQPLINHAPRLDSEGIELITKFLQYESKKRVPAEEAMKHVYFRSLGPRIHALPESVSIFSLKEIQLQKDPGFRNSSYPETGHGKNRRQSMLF

- estimated occupancy of CDK2 in spleen tissue ([1]; mice, based on competition with probe 3): > 80%
- log2 FC of enrichment by probe 3, PF-06873600 vs. vehicle ([1]; mouse spleen, probe 3 10 mg/kg s.c., 1 h, p < 0.05): < –2
- log2 FC of enrichment by probe 3, PF-06873600 vs. vehicle [2]: < –2
- log2 FC of enrichment by probe 3, PF-06873600 vs. vehicle [3]: ~ –1
Structure (SMILES): C[C@@]1(O)CCC[C@H]1n1c(=O)c(C(F)F)cc2cnc(NC3CCN(S(C)(=O)=O)CC3)nc21 [PF-06873600]
